Where “and” joins values, the source holds several entries; their conditions need not be identical. Identical values can stand only once.
Columns and labels:
[1] = Free radical scavenging: inhibition of autoxidation of 1-epinephrine (Misra and Fridovich assay); type: biochemical; details: 1-epinephrine 1 x 10⁻⁴M, EDTA 1 x 10⁻⁴M, 30°C, absorbance at 480 nm; read-out: 50% inhibition of the autoxidation rate (ID₅₀)
Procedure: 2-(3,4-dihydro-6-hydroxy-2,5,7,8-tetramethyl-2H-1-benzopyran-2-yl)ethyl-N,N,N-trimethylammonium bromide, described in Example 1, was evaluated for its ability to reduce superoxide radicals in an assay described by H.P. Misra and J. Fridovich, 1972, J. Biol. Chem. 247, 3170-5. In this assay, the rate of autoxidation of 1-epinephrine (1 x 10⁻⁴M) in the presence of EDTA (1 x 10⁻⁴M) at 30°C is followed spectrophotometrically following the increase of absorbance at 480 mn. […] For comparison, 3,4-dihydro-6-hydroxy-2,5,7,8-tetramethyl-2H-1-benzopyran -2-carboxylic acid (CAS 53188-07-1) gave ID₅₀ = 105 ± 8 µM and d,1-penicillamine (CAS 52-67-5) ID₅₀ = 73 µM in parallel experiments. Misra and Fridovich report that bovine superoxide dismutase gave 50% inhibition at […].

[2] = system: ligation-induced infarcted and reperfused rats; experiment: Cardioprotective effects: coronary ligation 60 min and reperfusion 30 min, infarcted area versus area at risk; type: in vivo
Procedure: 2-(3,4-Dihydro-2,5,7,8-tetramethyl-6-methyl-carbonyloxy-2H-1-benzopyran-2-yl) ethyl-N,N,N-trimethyl-ammonium bromide was evaluated in ligation-induced infarcted and reperfused rats as follows. One of two groups of rats was infused intravenously with a solution of test compound in saline at a rate of 2.3 ml/h (10 mg/kg/h). The control group was infused with saline at the same rate. After 10 min of drug infusion, coronary arteries were ligated surgically for 60 min, ligation was loosened to allow reperfusion for 30 min. The ligation was retied and a dye (Evans Blue) was injected. The animals were sacrificed and the heart ventricles were removed and weighed. The unstained tissue was dissected and weighed; this represents the "area at risk", i.e. the area that was deprived of blood supply by ligation. To determine the infarcted area, the tissue was incubated with 2,3,5-triphenyltetrazolium chloride. Infarcted tissue became light colored and could be dissected and weighed. Thus, for each rat that survived the ligation a measurement of "area at risk" and of "infarcted area" was obtained and the ratio was calculated as given in Tables II and III.

[3] = Affinity for cardiac tissue: radioactivity in heart and blood after intravenous 14C-labelled compound; type: in vivo; parameters: ng equiv/g heart: unit not given here; details: rats, 0.91 mg base/kg intravenous
Procedure: Following the procedure described in Example 1, but using ¹⁴C-methyl p-toluenesulfonate in place of "cold material", ¹⁴C-labelled 2-(3,4-dihydro-2,5,7,8-tetramethyl-6-methylcarbonyloxy-2H-1-benzopyranan-2-yl)ethyl-N,N,N-tri-¹⁴C-methylammonium p-toluenesulfonate was synthesized. The preparation was diluted with "cold material" to 11.74 µCi/mg base.
24 rats were given 0.91 mg base/kg by intravenous route (by canula into the jugular vein). The animals were sacrificed in groups of 3 at the time periods indicated in Table I. Immediately before sacrifice a 0.5 ml blood sample was taken from an indwelling catheter in the carotid artery. The hearts were removed, blotted and weighed. The samples of tissue and blood were solubiized with Luma Solve (a quaternary ammonium hydroxide preparation) and radioactivity was determined in a scintillation counter.

[4] = treated group, 10 mg/kg/h intravenous infusion, individual rats No. 1-10, 10 mg/kg

For Cc1c(C)c2c(c(C)c1O)CCC(C)(C(=O)O)O2 (stereo not drawn) [3,4-dihydro-6-hydroxy-2,5,7,8-tetramethyl-2H-1-benzopyran-2-carboxylic acid], which IC50 [1] is on record?
The IC50 was 105 ± 8 µM.

Which IC50 [1] does the source give for Cc1c(C)c2c(c(C)c1O)CCC(C)(CC[N+](C)(C)C)O2 (stereo not drawn) [Example 1, 2-(3,4-Dihydro-6-hydroxy-2,5,7,8-tetramethyl-2H-1-benzo-pyran-2-yl)ethyl-N,N,N-trimethylammonium bromide] here?
Its IC50 is 138 ± 14 µM.

For CC(=O)Oc1c(C)c(C)c2c(c1C)CCC(C)(CC[N+](C)(C)C)O2.[Br-] (stereo not drawn) [Example 2, 2-(3,4-Dihydro-2,5,7,8-tetramethyl-6-methylcarbonyloxy-2H-1-benzopyran-2-yl)ethyl-N,N,N-trimethylammonium bromide], which reduction of infarction ([2]; treated (10 mg/kg/h) versus saline control, statistically significant (ANOVA) at p = 0.02) is on record?
The reduction of infarction was 42.7%.

What about the “Ratio % (infarcted tissue / tissue at risk), average” value ([2]; treated group, 10 mg/kg/h intravenous infusion, average of 10 rats, control group 83.31, 10 mg/kg) of the same compound?
The value was 47.8% and 47.75%.

And the “Infarcted tissue,mg” value [2, 4]?
The value was 23 mg and 27 mg and 299 mg and 39 mg and 33 mg and 247 mg and 193 mg and 134 mg and 123 mg and 157 mg.

What about the “Ratio % (infarcted tissue / tissue at risk)” value [2, 4] of the same compound?
The value was 45.2% and 9.4% and 97.5% and 15.5% and 18.9% and 64.8% and 62.1% and 64.5% and 31.2% and 68.4%.

What does the source list for CC(=O)Oc1c(C)c(C)c2c(c1C)CCC(C)(CC[N+](C)(C)C)O2.Cc1ccc(S(=O)(=O)[O-])cc1 (stereo not drawn) [Example 9, 2-(3,4-Dihydro-2,5,7,8-tetramethyl-6-methylcarbonyloxy-2H-1-benzopyran-2-yl)ethyl-N,N,N-trimethylammonium p-toluenesulfonate]?
Ratio heart/blood ([3]; 5 min after administration): 3.05 ± 1.46; ng equiv/g heart ([3]; 5 min after administration): 1.591 ± 0.22; ng equiv/ml blood ([3]; 5 min after administration): 0.434 ± 0.351 ng equiv/ml blood; Ratio heart/blood ([3]; 15 min after administration): 6.90 ± 8.34; ng equiv/g heart ([3]; 15 min after administration): 1.728 ± 0.422; ng equiv/ml blood ([3]; 15 min after administration): 0.590 ± 0.295 ng equiv/ml blood; Ratio heart/blood ([3]; 30 min after administration): 17.33 ± 5.42; ng equiv/g heart ([3]; 30 min after administration): 1.905 ± 0.278; ng equiv/ml blood ([3]; 30 min after administration): 0.124 ± 0.032 ng equiv/ml blood; Ratio heart/blood ([3]; 1 hour after administration): 20.09 ± 2.54; ng equiv/g heart ([3]; 1 hour after administration): 2.092 ± 0.406; ng equiv/ml blood ([3]; 1 hour after administration): 0.096 ± 0.008 ng equiv/ml blood; Ratio heart/blood ([3]; 2 hours after administration): 21.90 ± 3.56; ng equiv/g heart ([3]; 2 hours after administration): 1.395 ± 0.042; ng equiv/ml blood ([3]; 2 hours after administration): 0.086 ± 0.041 ng equiv/ml blood; ng equiv/g heart ([3]; 4 hours after administration): 1.253 ± 0.248; ng equiv/ml blood ([3]; 4 hours after administration): 0.054 ± 0.013 ng equiv/ml blood; Ratio heart/blood ([3]; 4 hours after administration (maximum), listed as 2-(3,4-dihydro-2,5,7,8-tetramethyl-6-methylcarbonyloxy-2H-1-benzopyranan-2-yl)et, p-toluenesulfonate): 27.15 and 27.15 ± 4.30; Ratio heart/blood ([3]; 6 hours after administration): 18.62 ± 2.77; ng equiv/g heart ([3]; 6 hours after administration): 0.863 ± 0.067; ng equiv/ml blood ([3]; 6 hours after administration): 0.048 ± 0.007 ng equiv/ml blood; Ratio heart/blood ([3]; 8 hours after administration): 15.12 ± 2.69; ng equiv/g heart ([3]; 8 hours after administration): 0.652 ± 0.116; ng equiv/ml blood ([3]; 8 hours after administration): 0.048 ± 0.012 ng equiv/ml blood; concentration of drug in heart tissue ([3]; after 8 h): 0.65 µg equiv/g; affinity for heart tissue ([3]; conclusion in words): marked affinity for heart tissue

For CC(C)(S)[C@@H](N)C(=O)O [d,1-penicillamine], which IC50 [1] is on record?
Its IC50 is 73 µM.

From patent EP0369083A1, “Cardioprotective tocopherol analogs” (MERRELL DOW PHARMACEUTICALS INC., priority 1988, dated 1990)
